Measurements as given in PubChem BioAssay AID1919015 (Molecular Pharmacology Branch, DTP, NCI, 2023).
pIC50: −log10 of the molar value.

Test system: OVCAR-5 complex spheroids with HUVEC/MSC, viability, % test/control
Assay: Anticancer human tumor OVCAR-5 cell line growth inhibition [AhR];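 further: spheroids exposed to compounds for 7 days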;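 on viability, T/C: 100% = DMSO vehicle control wells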
Conditions: for pIC50: curve of first compound; for viability, T/C: stronger effect = lower value
In short: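 Agents were dosed in half-log steps down from roughly clinical Cmax, or from 10 microM where Cmax was unknown, alone and with AhR antagonists. Read-out: percent test/control growth of tumor spheroids containing HUVEC and MSC stromal cells.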

[1] = second compound 0.1 µM, first compound 0.0316 µM
[2] = second compound 0.1 µM, first compound 0.1 µM
[3] = second compound 0.1 µM, first compound 0.316 µM
[4] = second compound 0.1 µM, first compound 1 µM
[5] = second compound 0.1 µM, first compound 3.16 µM
[6] = second compound 0.1 µM, first compound 10 µM
[7] = second compound 0.316 µM, first compound 0.0316 µM
[8] = second compound 0.316 µM, first compound 0.1 µM
[9] = second compound 0.316 µM, first compound 0.316 µM
[10] = second compound 0.316 µM, first compound 1 µM
[11] = second compound 0.316 µM, first compound 3.16 µM
[12] = second compound 0.316 µM, first compound 10 µM
[13] = second compound 1 µM, first compound 0.0316 µM
[14] = second compound 1 µM, first compound 0.1 µM
[15] = second compound 1 µM, first compound 0.316 µM
[16] = second compound 1 µM, first compound 1 µM
[17] = second compound 1 µM, first compound 3.16 µM
[18] = second compound 1 µM, first compound 10 µM
[19] = second compound 3.16 µM, first compound 0.0316 µM
[20] = second compound 3.16 µM, first compound 0.1 µM
[21] = second compound 3.16 µM, first compound 0.316 µM
[22] = second compound 3.16 µM, first compound 1 µM
[23] = second compound 3.16 µM, first compound 3.16 µM
[24] = second compound 3.16 µM, first compound 10 µM
[25] = second compound 10 µM, first compound 0.0316 µM
[26] = second compound 10 µM, first compound 0.1 µM
[27] = second compound 10 µM, first compound 0.316 µM
[28] = second compound 10 µM, first compound 1 µM
[29] = second compound 10 µM, first compound 3.16 µM
[30] = second compound 10 µM, first compound 10 µM

CC(C)CC(NC(=O)C(Cc1ccccc1)NC(=O)c1cnccn1)B(O)O (stereo not given) + CC(CO)NC(=O)c1cc(-c2ccc(Cl)cc2)nn(-c2cnn(C)c2)c1=O
pIC50 (second compound 0.1 µM): 7.63
pIC50 (second compound 0.316 µM): 7.62
pIC50 (second compound 1 µM): 7.62
pIC50 (second compound 3.16 µM): 7.66
pIC50 (second compound 10 µM): 7.69
viability, T/C (second compound 0.1 µM, first compound 0.000949 µM): 101%
viability, T/C (second compound 0.1 µM, first compound 0.003 µM): 111%
viability, T/C (second compound 0.1 µM, first compound 0.00949 µM): 90.8%
viability, T/C (second compound 0.1 µM, first compound 0.03 µM): 38.2%
viability, T/C (second compound 0.1 µM, first compound 0.0949 µM): 18.2%
viability, T/C (second compound 0.1 µM, first compound 0.3 µM): 11%
viability, T/C (second compound 0.316 µM, first compound 0.000949 µM): 104%
viability, T/C (second compound 0.316 µM, first compound 0.003 µM): 112%
viability, T/C (second compound 0.316 µM, first compound 0.00949 µM): 89.6%
viability, T/C (second compound 0.316 µM, first compound 0.03 µM): 39.1%
viability, T/C (second compound 0.316 µM, first compound 0.0949 µM): 20%
viability, T/C (second compound 0.316 µM, first compound 0.3 µM): 8.57%
viability, T/C (second compound 1 µM, first compound 0.000949 µM): 107%
viability, T/C (second compound 1 µM, first compound 0.003 µM): 111%
viability, T/C (second compound 1 µM, first compound 0.00949 µM): 95%
viability, T/C (second compound 1 µM, first compound 0.03 µM): 39.1%
viability, T/C (second compound 1 µM, first compound 0.0949 µM): 20.5%
viability, T/C (second compound 1 µM, first compound 0.3 µM): 11.5%
viability, T/C (second compound 3.16 µM, first compound 0.000949 µM): 96%
viability, T/C (second compound 3.16 µM, first compound 0.003 µM): 105%
viability, T/C (second compound 3.16 µM, first compound 0.00949 µM): 87.3%
viability, T/C (second compound 3.16 µM, first compound 0.03 µM): 36%
viability, T/C (second compound 3.16 µM, first compound 0.0949 µM): 20%
viability, T/C (second compound 3.16 µM, first compound 0.3 µM): 12.4%
viability, T/C (second compound 10 µM, first compound 0.000949 µM): 88.3%
viability, T/C (second compound 10 µM, first compound 0.003 µM): 97.7%
viability, T/C (second compound 10 µM, first compound 0.00949 µM): 79.4%
viability, T/C (second compound 10 µM, first compound 0.03 µM): 34.4%
viability, T/C (second compound 10 µM, first compound 0.0949 µM): 22.4%
viability, T/C (second compound 10 µM, first compound 0.3 µM): 13.7%

COc1cc(Nc2ncc3c(n2)-c2ccc(Cl)cc2C(c2c(F)cccc2OC)=NC3)ccc1C(=O)O + CC(CO)NC(=O)c1cc(-c2ccc(Cl)cc2)nn(-c2cnn(C)c2)c1=O
pIC50 (second compound 0.1 µM): 5.74
pIC50 (second compound 0.316 µM): 5.61
pIC50 (second compound 1 µM): 5.43
pIC50 (second compound 3.16 µM): 5.75
pIC50 (second compound 10 µM): 5.08
viability, T/C [1]: 88.6%
viability, T/C [2]: 84.8%
viability, T/C [3]: 62.4%
viability, T/C [4]: 55.9%
viability, T/C [5]: 48.1%
viability, T/C [6]: 43.3%
viability, T/C [7]: 87.3%
viability, T/C [8]: 84.4%
viability, T/C [9]: 65.7%
viability, T/C [10]: 60%
viability, T/C [11]: 47.9%
viability, T/C [12]: 38.7%
viability, T/C [13]: 92.1%
viability, T/C [14]: 87%
viability, T/C [15]: 69.5%
viability, T/C [16]: 60.1%
viability, T/C [17]: 54%
viability, T/C [18]: 41.8%
viability, T/C [19]: 79.4%
viability, T/C [20]: 81.8%
viability, T/C [21]: 65.4%
viability, T/C [22]: 55%
viability, T/C [23]: 46.7%
viability, T/C [24]: 42.4%
viability, T/C [25]: 75.5%
viability, T/C [26]: 72.8%
viability, T/C [27]: 62.9%
viability, T/C [28]: 59%
viability, T/C [29]: 51.8%
viability, T/C [30]: 50.4%

Cn1ncnc1C1c2n[nH]c(=O)c3cc(F)cc(c23)NC1c1ccc(F)cc1 (stereo not given) + CC(CO)NC(=O)c1cc(-c2ccc(Cl)cc2)nn(-c2cnn(C)c2)c1=O
pIC50 (second compound 0.1 µM): < 7.00
pIC50 (second compound 0.316 µM): < 7.00
pIC50 (second compound 1 µM): < 7.00
pIC50 (second compound 3.16 µM): < 7.00
pIC50 (second compound 10 µM): < 7.00
viability, T/C (second compound 0.1 µM, first compound 0.000316 µM): 104%
viability, T/C (second compound 0.1 µM, first compound 0.001 µM): 105%
viability, T/C (second compound 0.1 µM, first compound 0.00316 µM): 105%
viability, T/C (second compound 0.1 µM, first compound 0.01 µM): 105%
viability, T/C [1]: 104%
viability, T/C [2]: 101%
viability, T/C (second compound 0.316 µM, first compound 0.000316 µM): 104%
viability, T/C (second compound 0.316 µM, first compound 0.001 µM): 110%
viability, T/C (second compound 0.316 µM, first compound 0.00316 µM): 106%
viability, T/C (second compound 0.316 µM, first compound 0.01 µM): 107%
viability, T/C [7]: 105%
viability, T/C [8]: 99.7%
viability, T/C (second compound 1 µM, first compound 0.000316 µM): 112%
viability, T/C (second compound 1 µM, first compound 0.001 µM): 114%
viability, T/C (second compound 1 µM, first compound 0.00316 µM): 112%
viability, T/C (second compound 1 µM, first compound 0.01 µM): 108%
viability, T/C [13]: 112%
viability, T/C [14]: 108%
viability, T/C (second compound 3.16 µM, first compound 0.000316 µM): 106%
viability, T/C (second compound 3.16 µM, first compound 0.001 µM): 103%
viability, T/C (second compound 3.16 µM, first compound 0.00316 µM): 103%
viability, T/C (second compound 3.16 µM, first compound 0.01 µM): 96.2%
viability, T/C [19]: 101%
viability, T/C [20]: 100%
viability, T/C (second compound 10 µM, first compound 0.000316 µM): 97.6%
viability, T/C (second compound 10 µM, first compound 0.001 µM): 97.8%
viability, T/C (second compound 10 µM, first compound 0.00316 µM): 99.5%
viability, T/C (second compound 10 µM, first compound 0.01 µM): 95.5%
viability, T/C [25]: 93.5%
viability, T/C [26]: 94.6%

NS(=O)(=O)OCC1CC(n2ccc3c(NC4CCc5ccccc54)ncnc32)CC1O (stereo not given) + CC(CO)NC(=O)c1cc(-c2ccc(Cl)cc2)nn(-c2cnn(C)c2)c1=O
pIC50 (second compound 0.1 µM): 6.71
pIC50 (second compound 0.316 µM): 6.80
pIC50 (second compound 1 µM): 6.77
pIC50 (second compound 3.16 µM): 6.76
pIC50 (second compound 10 µM): 6.69
viability, T/C [1]: 92.9%
viability, T/C [2]: 66.1%
viability, T/C [3]: 40.3%
viability, T/C [4]: 16.1%
viability, T/C [5]: 13%
viability, T/C [6]: 11.3%
viability, T/C [7]: 79.5%
viability, T/C [8]: 58.9%
viability, T/C [9]: 37.1%
viability, T/C [10]: 14.8%
viability, T/C [11]: 11.2%
viability, T/C [12]: 11.5%
viability, T/C [13]: 85.1%
viability, T/C [14]: 61%
viability, T/C [15]: 37.6%
viability, T/C [16]: 14.9%
viability, T/C [17]: 11.5%
viability, T/C [18]: 11.6%
viability, T/C [19]: 72.1%
viability, T/C [20]: 65.3%
viability, T/C [21]: 33.5%
viability, T/C [22]: 13.7%
viability, T/C [23]: 11.3%
viability, T/C [24]: 11.2%
viability, T/C [25]: 75.7%
viability, T/C [26]: 65.7%
viability, T/C [27]: 40.7%
viability, T/C [28]: 15.7%
viability, T/C [29]: 12.6%
viability, T/C [30]: 12.6%

O=C(C=Cc1cccc(S(=O)(=O)Nc2ccccc2)c1)NO + CC(CO)NC(=O)c1cc(-c2ccc(Cl)cc2)nn(-c2cnn(C)c2)c1=O
pIC50 (second compound 0.1 µM): 5.98
pIC50 (second compound 0.316 µM): 6.06
pIC50 (second compound 1 µM): 6.00
pIC50 (second compound 3.16 µM): 6.09
pIC50 (second compound 10 µM): 6.03
viability, T/C [1]: 99.8%
viability, T/C [2]: 95.7%
viability, T/C [3]: 76%
viability, T/C [4]: 52.2%
viability, T/C [5]: 23.3%
viability, T/C [6]: 6.15%
viability, T/C [7]: 101%
viability, T/C [8]: 95%
viability, T/C [9]: 76.4%
viability, T/C [10]: 45.9%
viability, T/C [11]: 21%
viability, T/C [12]: 6.73%
viability, T/C [13]: 108%
viability, T/C [14]: 101%
viability, T/C [15]: 79.1%
viability, T/C [16]: 50%
viability, T/C [17]: 22.3%
viability, T/C [18]: 5.69%
viability, T/C [19]: 103%
viability, T/C [20]: 91.9%
viability, T/C [21]: 72.4%
viability, T/C [22]: 45.7%
viability, T/C [23]: 19.9%
viability, T/C [24]: 5.14%
viability, T/C [25]: 89.4%
viability, T/C [26]: 84.2%
viability, T/C [27]: 72.4%
viability, T/C [28]: 49.3%
viability, T/C [29]: 19.8%
viability, T/C [30]: 4.82%
